Experiments:
T29 cells = assay: Internucleosomal DNA fragmentation (low molecular weight DNA of nucleoplasm, agarose gel); type: cell-based, murine; conditions: T29 cells, 2.5, 5, 10, and 20 μM, 24 hours
Description: Extraction of nuclei in buffer I (prepared as above) from viable cells results in the recovery of chromatin-free nucleoplasm. However, during cell death when DNA fragmentation occurs, the low molecular weight DNA fragments are recovered in the nucleoplasm. Consequently, supernatant of nuclear extracts from cells undergoing programmed cell death contain low molecular weight DNA fragments, whereas the pellet of the nuclear extracts contain the high molecular weight chromatin. By this experimental approach, DNA fragmentation could be analyzed without interference of the bulky DNA [51]. […] The DNA pellet was resuspended in electrophoresis buffer (10 mM Tris-HCI, pH 8.0, 1 mM EDTA) and analyzed by electrophoresis on 1.5% agarose gels containing […] ethydium bromide.
Figure 7 HB-19 and related multivalent Nucant pseudopeptides induce cell death associated with internucleosomal DNA fragmentation. […] Cell cultures (in triplicate) were monitored for viable cell number daily for 3 days. […] T29 cells seeded at 100,000/ml in 2 ml in the absence (0 μM) or presence of N7 at various concentrations 2.5, 5, 10 and 20 μM were cultured for 3 days and the number of viable cells was determined at day 1, 2, and 3 post-seeding. […] The nuclear extracts were analyzed by immunoblotting using anti-Nt Ab (Methods). […]

MDA-MB-435 = assay: Cell adhesion to plastic culture flask; type: cell-based, human; conditions: MDA-MB-435, 10 μM, adherent cells counted after 16 hours of culture
Description: (§1) A. Inhibition of Cell adhesion by N6. […] C. The effect of Nucant treatment on cell proliferation. […] The ordinates give the mean ± SD of triplicate samples. Statistical significance: **p < 0.01, ***p < 0.001.

MDA-MB-231 = assay: Cell adhesion to plastic culture flask; type: cell-based, human; conditions: MDA-MB-231, 10 μM, adherent cells counted after 16 hours of culture
Description: as §1

LNCaP = assay: Cell adhesion to plastic culture flask; type: cell-based, human; conditions: 10 μM, adherent cells counted after 16 hours of culture
Description: as §1

melanoma TIII cell = assay: Cell adhesion; type: cell-based, murine; conditions: after 5 hours of cell seeding, vs untreated control, mean of at least 2 independent experiments

Substance: Ac-Lys-Aib-Gly-Lys-Aib-Gly-Lys-Aib-Gly-Lys-Aib-Gly-Lys-Aib-Gly-Lys-Aib-Gly-CONH2 [Nucant N6, Presents hexavalently the pseudo-tripeptide Lysψ(CH2N)-Pro-Arg coupled to the polypeptide template containing Aib]
- DNA fragmentation (T29 cells): Internucleosomal DNA cleavage
- degree of adhesion inhibition (MDA-MB-435): 41%
- degree of adhesion inhibition (MDA-MB-231): 58%
- degree of adhesion inhibition (LNCaP): 66%
- % Inhibition of cell Adhesion (melanoma TIII cell; 2.5 μM): 15%
- % Inhibition of cell Adhesion (melanoma TIII cell; 5 μM): 26%
- % Inhibition of cell Adhesion (melanoma TIII cell; 10 μM): 38%
- % Inhibition of cell Adhesion (melanoma TIII cell; 20 μM): 55%

Reference: PMC3199867, “Targeting surface nucleolin with multivalent HB-19 and related Nucant pseudopeptides results in distinct inhibitory mechanisms depending on the malignant tumor cell type” (BMC Cancer, 2011)
